pEC50: −log10 of the molar value.
Assays:
dengue virus type 2 [1] = test: Antiviral activity against Dengue virus type 2 NGC infected in African green monkey Vero B cells assessed as reduction in virus yield; type: functional, organism-based, Thailand/NGS-C/1944; conditions: for pEC50: Dengue virus, Thailand/NGS-C/1944, Vero B, read-out: EC50
[2] = Cytotoxicity in African green monkey Vero B cells assessed as reduction in cell viability by MTS assay; type: cell-based; conditions: chlorocebus aethiops
[3] = Selectivity index, ratio of CC50 for African green monkey Vero B cells to EC50 for Dengue virus type 2 NGC infected in African green monkey Vero B cells; type: toxicity; conditions: read-out: Ratio CC50/EC50
Dengue virus = test: Antiviral activity against Dengue virus; type: functional, organism-based
Zika virus [4] = test: Antiviral activity against Zika virus MR766 infected in African green monkey Vero E6 cells assessed as reduction in virus yield; type: functional, organism-based; conditions: MR766, Vero C1008
[5] = Cytotoxicity in African green monkey Vero E6 cells assessed as reduction in cell viability by MTS assay; type: cell-based; conditions: chlorocebus sabaeus, Vero E6 cells (Vero C1008)
Zika virus [6] = test: Antiviral activity against Zika virus; type: functional, organism-based
[7] = Selectivity index, ratio of CC50 for African green monkey Vero E6 cells to EC50 for Zika virus MR766 infected in African green monkey Vero E6 cells; type: toxicity, Vero C1008; conditions: read-out: Ratio CC50/EC50
Zika virus [8] = test: Potency index, ratio of EC50 for 7DMA to EC50 for test compound for antiviral activity against Zika virus MR766 infected in African green monkey Vero E6 cells assessed as reduction in virus yield; type: functional, Vero C1008
dengue virus type 2 [9] = test: Potency index, ratio of EC50 for RBV to EC50 for test compound for antiviral activity against Dengue virus type 2 NGC infected in African green monkey Vero B cells assessed as reduction in virus yield; type: functional, Thailand/NGS-C/1944

## NS(=O)(=O)c1ccc(Nc2nc(N3CCOCC3)nc3[nH]cnc23)cc1
Dengue virus type 2 [1]
  EC50: Not Active
[2]
  CC50: 373 µM

## OCCNc1nc(Nc2cccc(O)c2)c2nc[nH]c2n1
[3]
  selectivity ratio: > 24
Dengue virus type 2 [1]
  pEC50: 5.13
[2]
  CC50: > 175 µM

## O=C1OCc2c(Nc3cccc(O)c3)nc(N3CCOCC3)nc21
Dengue virus type 2 [1]
  pEC50: < 3.89
[2]
  CC50: > 128 µM

## Oc1cccc(Nc2nc(N3CCOCC3)nc3[nH]cnc23)c1
[3]
  selectivity ratio: 3
Dengue virus type 2 [1]
  pEC50: 4.39
Dengue virus
  pEC50: 4.39
[2]
  CC50: 122 µM

## O=C1c2nc(N3CCOCC3)nc(Nc3cccc(O)c3)c2CN1CCc1ccccc1
Dengue virus type 2 [1]
  pEC50: 4.15
[2]
  CC50: > 116 µM

## Oc1cccc(Nc2nc(NCCOc3ccccc3)nc3[nH]cnc23)c1
[3]
  selectivity ratio: 6.9
Zika virus [4]
  pEC50: 4.78
[5]
  CC50: > 124 µM
Zika virus [6]
  pEC50: 4.78
[7]
  selectivity ratio: > 7.4
Dengue virus type 2 [1]
  pEC50: 5.00
Dengue virus
  pEC50: 5.00
[2]
  CC50: 69.4 µM

## O=C(NCCOc1ccccc1)c1nc(N2CCOCC2)nc(Nc2cccc(O)c2)c1CO
[3]
  selectivity ratio: 1.2
Dengue virus type 2 [1]
  pEC50: 4.21
[2]
  CC50: 73.3 µM

## O=C1c2nc(N3CCOCC3)nc(Nc3cccc(O)c3)c2CN1CCOc1ccccc1
[3]
  selectivity ratio: > 4.9
Dengue virus type 2 [1]
  pEC50: 4.69
[2]
  CC50: > 100 µM

## COc1ccc(CN2Cc3c(Nc4cccc(O)c4)nc(N4CCOCC4)nc3C2=O)cc1
Dengue virus type 2 [1]
  pEC50: < 3.95
[2]
  CC50: > 112 µM

## CCCCCOCc1c(Nc2ccc(S(N)(=O)=O)cc2)nc(N2CCOCC2)nc1C(=O)NCCOc1ccccc1
[3]
  selectivity ratio: > 46
Zika virus [4]
  pEC50: 5.69
[5]
  CC50: > 83.5 µM
Zika virus [8]
  Ratio EC50: 3
[7]
  selectivity ratio: > 41
Dengue virus type 2 [9]
  Ratio EC50: 6
Dengue virus type 2 [1]
  pEC50: 5.74
[2]
  CC50: > 83.5 µM

## CCCCCOCc1c(Nc2cccc(O)c2)nc(N2CCOCC2)nc1C(=O)NCc1ccc(C(F)(F)F)cc1
[3]
  selectivity ratio: 3
Zika virus [4]
  pEC50: 4.86
[5]
  CC50: 48.2 µM
[7]
  selectivity ratio: 3.5
Dengue virus type 2 [1]
  pEC50: 4.96
[2]
  CC50: 32.8 µM

## O=C(NCCc1ccccc1)c1nc(N2CCOCC2)nc(Nc2cccc(O)c2)c1CO
[3]
  selectivity ratio: 3.1
Dengue virus type 2 [1]
  pEC50: 4.68
[2]
  CC50: 64.5 µM

## NS(=O)(=O)c1ccc(Nc2nc(N3CCOCC3)nc(C(=O)NCc3ccccc3)c2CO)cc1
Dengue virus type 2 [1]
  pEC50: < 4.00
[2]
  CC50: > 100 µM

## COc1ccc(CNC(=O)c2nc(N3CCOCC3)nc(Nc3cccc(O)c3)c2CO)cc1
Dengue virus type 2 [1]
  pEC50: < 3.97
[2]
  CC50: > 107 µM

## CCCCCOCc1c(Nc2ccc(S(N)(=O)=O)cc2)nc(N2CCOCC2)nc1C(=O)NCc1ccccc1
[3]
  selectivity ratio: > 88
Zika virus [4]
  pEC50: < 4.06
[5]
  CC50: > 87.9 µM
Dengue virus type 2 [1]
  pEC50: 6.00
[2]
  CC50: > 87.9 µM

## O=C(NCc1ccccc1)c1nc(N2CCOCC2)nc(Nc2cccc(O)c2)c1CO
Dengue virus type 2 [1]
  pEC50: < 3.94
[2]
  CC50: > 115 µM

## CCCCCOCc1c(Nc2ccc(S(N)(=O)=O)cc2)nc(N2CCOCC2)nc1C(=O)NCc1ccc(OC)cc1
Dengue virus type 2 [1]
  pEC50: < 4.08
[2]
  CC50: > 83.5 µM

## COc1ccc(CN2Cc3c(Nc4ccc(S(N)(=O)=O)cc4)nc(N4CCOCC4)nc3C2=O)cc1
Dengue virus type 2 [1]
  pEC50: < 4.01
[2]
  CC50: > 97.9 µM

## CCCCCOCc1c(Nc2cccc(O)c2)nc(N2CCOCC2)nc1C(=O)NCc1ccccc1
[3]
  selectivity ratio: 1.9
Zika virus [4]
  pEC50: 4.24
[5]
  CC50: > 98.9 µM
[7]
  selectivity ratio: > 1.7
Dengue virus type 2 [1]
  pEC50: 4.68
[2]
  CC50: 39.4 µM

## NS(=O)(=O)c1ccc(Nc2nc(N3CCOCC3)nc3c2CN(CCOc2ccccc2)C3=O)cc1
[3]
  selectivity ratio: > 8
Zika virus [4]
  pEC50: < 4.01
[5]
  CC50: > 97.9 µM
Dengue virus type 2 [1]
  pEC50: 4.91
[2]
  CC50: > 97.9 µM

## O=C1c2nc(N3CCOCC3)nc(Nc3cccc(O)c3)c2CN1Cc1ccccc1
Dengue virus type 2 [1]
  pEC50: 4.00
[2]
  CC50: > 120 µM

## NS(=O)(=O)c1ccc(Nc2nc(N3CCOCC3)nc3c2CN(Cc2ccccc2)C3=O)cc1
[3]
  selectivity ratio: > 4.8
Zika virus [4]
  pEC50: < 3.98
[5]
  CC50: > 104 µM
Dengue virus type 2 [1]
  pEC50: 4.67
[2]
  CC50: > 104 µM

## NS(=O)(=O)c1ccc(Nc2nc(N3CCOCC3)nc3c2COC3=O)cc1
Dengue virus type 2 [1]
  pEC50: < 3.89
[2]
  CC50: > 128 µM

## C[C@@]1(O)[C@H](O)[C@@H](CO)O[C@H]1n1ccc2c(N)ncnc21 [BETA-2'-C-METHYL-7-DEAZA-ADENOSINE]
Zika virus [4]
  pEC50: 5.24
[5]
  CC50: > 357 µM
Zika virus [6]
  pEC50: 5.02
[7]
  selectivity ratio: > 64

## NC(=O)c1ncn([C@@H]2O[C@H](CO)[C@@H](O)[C@H]2O)n1 [RIBAVIRIN]
[3]
  selectivity ratio: > 34
Zika virus [6]
  pEC50: 4.92
Dengue virus type 2 [1]
  pEC50: 4.92
Dengue virus
  pEC50: 4.92
[2]
  CC50: > 409 µM

Source: ChEMBL document CHEMBL4339220, “Scaffold Morphing Approach To Expand the Toolbox of Broad-Spectrum Antivirals Blocking Dengue/Zika Replication” (ACS Med Chem Lett, 2019)
